From US8501732B2, “Aminomethyl quinolone compounds” (Hoffmann-La Roche Inc., priority 2011, dated 2013)

Legend:
JNK1 = JNK1 (Homo sapiens (Human), UniProt P45983); test: In Vitro JNK1 Assay (TR-FRET, phosphorylation of GST-c-Jun); type: biochemical; conditions: 0.2 nM active JNK1 kinase, 26.7 nM GST-c-Jun, 2 μM ATP, 30 min at room temperature
Procedure, shortened: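 GST-c-Jun (residues 1-79) phosphorylation by JNK1 in 50 mM HEPES pH 7.0, MgCl2, 1 mM DTT, 0.1 mM Na3VO4, 0.2 mg/mL BSA, 30 min at room temperature. Stopped with EDTA plus anti-phospho-c-Jun antibody and read by TR-FRET 1 hr later. IC50 from percent inhibition over 10 serial dilutions.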

[1] = system: phospho(Ser63)-c-jun in HK-2 cells; test: Cell-Based Assay for JNK Inhibitors (in-cell ELISA, phospho(Ser63)-c-jun after TNFα); conditions: HK-2 cells (human proximal tubule cells), 60 minutes compound, then 10 ng/mL TNFα for 30 minutes
Procedure, shortened: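 HK-2 human proximal tubule cells were seeded at 40,000 cells/well, cultured 24 h, then serum-starved 16–24 h before TNFα stimulation with compound. Phospho(Ser63)-c-jun was quantified by in-cell ELISA on fixed, permeabilised cells, using a rabbit phospho-specific primary (overnight, 4 °C) and an HRP-linked anti-rabbit secondary. Absorbance was read at 450 nm.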

Sequence of JNK1 (P45983 whole entry, the tested form may be a part): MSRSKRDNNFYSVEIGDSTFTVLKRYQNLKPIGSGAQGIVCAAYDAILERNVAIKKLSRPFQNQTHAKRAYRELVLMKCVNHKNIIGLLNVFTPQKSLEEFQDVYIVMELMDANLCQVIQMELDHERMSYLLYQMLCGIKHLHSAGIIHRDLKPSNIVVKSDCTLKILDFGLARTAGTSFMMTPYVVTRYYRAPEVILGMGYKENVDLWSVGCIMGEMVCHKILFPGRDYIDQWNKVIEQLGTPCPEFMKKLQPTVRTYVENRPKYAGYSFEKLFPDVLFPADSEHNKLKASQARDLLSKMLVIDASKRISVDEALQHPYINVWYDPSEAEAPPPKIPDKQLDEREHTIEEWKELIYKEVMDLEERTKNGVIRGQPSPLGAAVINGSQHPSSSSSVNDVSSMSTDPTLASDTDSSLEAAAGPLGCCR

Compound | IC50 (JNK1) [µM] | EC50 [1] [µM]
CN(C)c1ccc(C(=O)NCc2cn(-c3ccccc3)c3cc(Cl)ccc3c2=O)cn1 [Example I-79, N-(7-Chloro-4-oxo-1-phenyl-1,4-dihydro-quinolin-3-ylmethyl)-6-dimethylamino-nicotinamide] | 0.055 | 46
O=C(NCc1cn(-c2ccccc2)c2cc(Cl)ccc2c1=O)c1cnc(N2CCOCC2)s1 [Example I-96, 2-Morpholin-4-yl-thiazole-5-carboxylic acid (7-chloro-4-oxo-1-phenyl-1,4-dihydro-quinolin-3-ylmethyl)-amide] | 0.055 | 100
CN(C)C(=O)c1c(CNC(=O)c2ccc3ncsc3c2)c(=O)c2ccc(Cl)cc2n1-c1ccccc1 [Example I-16, 3-{[(Benzothiazole-6-carbonyl)-amino]-methyl}-7-chloro-4-oxo-1-phenyl-1,4-dihydro-quinoline-2-carboxylic acid dimethylamide] | 0.066 | 35
COC(=O)c1c(CNC(=O)C2CCN(C(=O)OC(C)(C)C)CC2)c(=O)c2ccc(Cl)cc2n1-c1ccccc1 [Example I-128, 3-{[(1-tert-Butoxycarbonyl-piperidine-4-carbonyl)-amino]-methyl}-7-chloro-4-oxo-1-phenyl-1,4-dihydro-quinoline-2-carboxylic acid methyl ester] | 0.035 | 100
O=C(NCc1cn(-c2ccccc2)c2cc(Cl)ccc2c1=O)c1ccc(C(=O)NC2C3CC4CC2CC(O)(C4)C3)cc1 (centres unmarked) [Example I-99, N-(7-Chloro-4-oxo-1-phenyl-1,4-dihydro-quinolin-3-ylmethyl)-N′-(5-hydroxy-adamantan-2-yl)-terephthalamide] | 0.052 | 6.2
O=C(NCc1cn(-c2ccccc2)c2cc(Cl)ccc2c1=O)c1ccc(NCCO)nc1 [Example I-77, N-(7-Chloro-4-oxo-1-phenyl-1,4-dihydro-quinolin-3-ylmethyl)-6-(2-hydroxy-ethylamino)-nicotinamide] | 0.047 | 63
O=C(NCc1cn(-c2ccccc2)c2cc(Cl)ccc2c1=O)c1ccn(Cc2ccc(Cl)cc2)c(=O)c1 [Example I-34, 1-(4-Chloro-benzyl)-2-oxo-1,2-dihydro-pyridine-4-carboxylic acid (7-chloro-4-oxo-1-phenyl-1,4-dihydro-quinolin-3-ylmethyl)-amide] | 0.044 | 12
CN(C)C(=O)c1c(CNC(=O)c2cnn(C)c2)c(=O)c2ccc(Cl)cc2n1-c1ccccc1 [Example I-23, 7-Chloro-3-{[(1-methyl-1H-pyrazole-4-carbonyl)-amino]-methyl}-4-oxo-1-phenyl-1,4-dihydro-quinoline-2-carboxylic acid dimethylamide] | 0.78 | 87
O=C(NCc1cn(-c2ccccc2)c2cc(Cl)ccc2c1=O)c1cnc(N2CCC(CO)CC2)s1 [Example I-93, 2-(4-Hydroxymethyl-piperidin-1-yl)-thiazole-5-carboxylic acid (7-chloro-4-oxo-1-phenyl-1,4-dihydro-quinolin-3-ylmethyl)-amide] | 0.033 | 100
O=C(NCc1cn(-c2ccccc2F)c2cc(F)ccc2c1=O)c1ccc(N2CCC(CO)CC2)nc1 [Example I-106, 4-Hydroxymethyl-3,4,5,6-tetrahydro-2H-[1,2′]bipyridinyl-5′-carboxylic acid [7-fluoro-1-(2-fluoro-phenyl)-4-oxo-1,4-dihydro-quinolin-3-ylmethyl]-amide] | 0.052 | 50
COC(=O)c1c(CNC(=O)c2ccc(Cl)c(Cl)c2)c(=O)c2ccc(C(F)(F)F)nc2n1-c1ccccc1 [Example I-159, 3-[(3,4-Dichloro-benzoylamino)-methyl]-4-oxo-1-phenyl-7-trifluoromethyl-1,4-dihydro-[1,8]naphthyridine-2-carboxylic acid methyl ester] | 0.17 | 43
O=C(NCc1cn(-c2ccccc2)c2cc(Cl)ccc2c1=O)c1ccc(N2CCOCC2)nc1 [Example I-40, N-(7-Chloro-4-oxo-1-phenyl-1,4-dihydro-quinolin-3-ylmethyl)-6-morpholin-4-yl-nicotinamide] | 0.084 | 100
O=C(NCc1cn(-c2ccccc2)c2cc(Cl)ccc2c1=O)c1ccc(-c2ncn[nH]2)cc1 [Example I-43, N-(7-Chloro-4-oxo-1-phenyl-1,4-dihydro-quinolin-3-ylmethyl)-4-(2H-[1,2,4]triazol-3-yl)-benzamide] | 0.1 | 100

These reach a lower IC50 (JNK1). Values come first.

IC50 (JNK1) [µM] | EC50 [1] [µM] | Compound
0.015 | 3 | COC(=O)c1c(CNC(=O)c2ccc3cc[nH]c3c2)c(=O)c2ccc(Cl)cc2n1-c1ccccc1 [Example I-120, 7-Chloro-3-{[(1H-indole-6-carbonyl)-amino]-methyl}-4-oxo-1-phenyl-1,4-dihydro-quinoline-2-carboxylic acid methyl ester]
0.007 | 2.7 | O=C(NCc1c(-c2ncco2)n(-c2ccccc2)c2cc(Cl)ccc2c1=O)c1ccnc(N2CCOCC2)c1 [Example I-2, N-(7-Chloro-2-oxazol-2-yl-4-oxo-1-phenyl-1,4-dihydro-quinolin-3-ylmethyl)-2-morpholin-4-yl-isonicotinamide]
0.024 | 33 | O=C(NCc1cn(-c2ccccc2)c2cc(Cl)ccc2c1=O)c1ccc(N2CC[C@@H](O)C2)nc1 [Example I-70]
0.004 | 2.4 | COC(=O)c1c(CNC(=O)c2ccc(N3CCOCC3)nc2)c(=O)c2ccc(F)cc2n1-c1ccccc1 [Example I-169, 7-Fluoro-3-{[(6-morpholin-4-yl-pyridine-3-carbonyl)-amino]-methyl}-4-oxo-1-phenyl-1,4-dihydro-quinoline-2-carboxylic acid methyl ester]
0.001 | 0.5 | O=C(NCc1c(-c2ncco2)n(-c2ccccc2)c2cc(Cl)ccc2c1=O)c1ccn(Cc2ccccc2)c(=O)c1 [Example I-1, 1-Benzyl-2-oxo-1,2-dihydro-pyridine-4-carboxylic acid (7-chloro-2-oxazol-2-yl-4-oxo-1-phenyl-1,4-dihydro-quinolin-3-ylmethyl)-amide]
0.018 | 100 | O=C(NCc1cn(-c2ccccc2)c2cc(Cl)ccc2c1=O)c1ccc(N(CCO)CCO)nc1 [Example I-64, 6-[Bis-(2-hydroxy-ethyl)-amino]-N-(7-chloro-4-oxo-1-phenyl-1,4-dihydro-quinolin-3-ylmethyl)-nicotinamide]
0.01 | 3.8 | COC(=O)c1c(CNC(=O)c2ccc(C(N)=O)cc2)c(=O)c2ccc(Cl)cc2n1-c1ccccc1 [Example I-117, 3-[(4-Carbamoyl-benzoylamino)-methyl]-7-chloro-4-oxo-1-phenyl-1,4-dihydro-quinoline-2-carboxylic acid methyl ester]
0.031 | 30 | O=C(NCc1cn(-c2ccccc2)c2cc(Cl)ccc2c1=O)c1ccnc(N2CCOCC2)c1 [Example I-31, N-(7-Chloro-4-oxo-1-phenyl-1,4-dihydro-quinolin-3-ylmethyl)-2-morpholin-4-yl-isonicotinamide]
0.021 | 26 | CS(=O)(=O)C1CCN(c2ncc(C(=O)NCc3cn(-c4ccccc4)c4cc(Cl)ccc4c3=O)s2)CC1 [Example I-92, 2-(4-Methanesulfonyl-piperidin-1-yl)-thiazole-5-carboxylic acid (7-chloro-4-oxo-1-phenyl-1,4-dihydro-quinolin-3-ylmethyl)-amide]
0.029 | 100 | NC(=O)N1CCN(c2ccc(C(=O)NCc3cn(-c4ccccc4)c4cc(Cl)ccc4c3=O)cn2)CC1 [Example I-73, 4-{5-[(7-Chloro-4-oxo-1-phenyl-1,4-dihydro-quinolin-3-ylmethyl)-carbamoyl]-pyridin-2-yl}-piperazine-1-carboxylic acid amide]
0.029 | 14 | COC(=O)c1c(CNC(=O)c2ccc(-c3nc(C)no3)cc2)c(=O)c2ccc(Cl)cc2n1-c1ccccc1 [Example I-126, 7-Chloro-3-{[4-(3-methyl-[1,2,4]oxadiazol-5-yl)-benzoylamino]-methyl}-4-oxo-1-phenyl-1,4-dihydro-quinoline-2-carboxylic acid methyl ester]
0.013 | 10 | COC(=O)c1c(CNC(=O)c2cccc(F)c2)c(=O)c2ccc(Cl)cc2n1-c1ccccc1 [Example I-138, 7-Chloro-3-[(3-fluoro-benzoylamino)-methyl]-4-oxo-1-phenyl-1,4-dihydro-quinoline-2-carboxylic acid methyl ester]
0.019 | 29 | CN(CCO)c1ccc(C(=O)NCc2cn(-c3ccccc3)c3cc(Cl)ccc3c2=O)cn1 [Example I-66, N-(7-Chloro-4-oxo-1-phenyl-1,4-dihydro-quinolin-3-ylmethyl)-6-[(2-hydroxy-ethyl)-methyl-amino]-nicotinamide]
0.015 | 3.3 | COC(=O)c1c(CNC(=O)c2ccc(-c3cc[nH]n3)cc2)c(=O)c2ccc(Cl)cc2n1-c1ccccc1 [Example I-122, 7-Chloro-4-oxo-1-phenyl-3-{[4-(1H-pyrazol-3-yl)-benzoylamino]-methyl}-1,4-dihydro-quinoline-2-carboxylic acid methyl ester]
0.019 | 40 | O=C(NCc1cn(-c2ccccc2)c2cc(Cl)ccc2c1=O)c1ccc(N2CCCCC2)nc1 [Example I-65, 3,4,5,6-Tetrahydro-2H-[1,2′]bipyridinyl-5′-carboxylic acid (7-chloro-4-oxo-1-phenyl-1,4-dihydro-quinolin-3-ylmethyl)-amide]
